# Experimental data published in paper PMC6576746, “Rational discovery of dual-indication multi-target PDE/Kinase inhibitor for precision anti-cancer therapy using structural systems pharmacology” (PLoS Computational Biology, 2019).
# Tests used:
# Assay in all cases: cells
# Parameters in all cases: species or system panel of human cancer cell lines; Eurofins OncoPanel proliferation; nuclei count by high-content fluorescence imaging, 10-point dose response
# [1] = test system: HLE; details: Homo sapiens, HLE, 72 h, cell count, 3 days
# Method in brief: (§1)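 Ten half-log concentrations from 100 μM (0.1% DMSO max) applied one day post-seeding, 3-day exposure at 37°C; untreated time-zero plate for GI50. Readout is nuclear cell count by automated fluorescence imaging, giving EC50, IC50, GI50 and 0–10 activity area.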
# [2] = test system: JEG-3; details: Homo sapiens, JEG-3, 72 h, cell count, 3 days
# Method in brief: as §1
# [3] = test system: HCT-8; details: Homo sapiens, HCT-8, 72 h, cell count, 3 days
# Method in brief: as §1
# [4] = test system: 647-V; details: Homo sapiens, 647-V, 72 h, cell count, 3 days
# Method in brief: as §1
# [5] = test system: Capan-2; details: Homo sapiens, Capan-2, 72 h, cell count, 3 days
# Method in brief: as §1
# [6] = test system: HEC-1-A; details: Homo sapiens, HEC-1-A, 72 h, cell count, 3 days
# Method in brief: as §1
# [7] = test system: BV-173; details: Homo sapiens, BV-173, 72 h, cell count, 3 days
# Method in brief: as §1
# [8] = test system: Hs 578T; details: Homo sapiens, Hs-578T, 72 h, cell count, 3 days
# Method in brief: as §1
# [9] = test system: A498; details: Homo sapiens, A498, 72 h, cell count, 3 days
# Method in brief: as §1
# [10] = test system: BM-1604; details: BM-1604, 72 h, cell count, 3 days
# Method in brief: as §1
# [11] = test system: DBTRG-05MG; details: Homo sapiens, DBTRG-05MG, 72 h, cell count, 3 days
# Method in brief: as §1
# [12] = test system: SNU-1; details: Homo sapiens, SNU1, 72 h, cell count, 3 days
# Method in brief: as §1
# [13] = test system: TE 125.T; details: 72 h, cell count, 3 days
# Method in brief: as §1
# [14] = test system: TE 381.T; details: TE 381.T, 72 h, cell count, 3 days
# Method in brief: as §1
# [15] = 50% of maximum possible response
structure (smiles),measurement,setting,value
C[C@@H]1CC(=O)NN=C1c1ccc(NN=C(C#N)C#N)cc1 [levosimendan],IC50,[1]; [15],26.5 µM
same,GI50,[1]; corrected for time zero,24.3 µM
same,EC50,[1]; curve inflection point,25.2 µM
same,IC50,[2]; [15],30.5 µM
same,GI50,[2]; corrected for time zero,25.6 µM
same,EC50,[2]; curve inflection point,30.5 µM
same,IC50,[3]; [15],23.9 µM
same,GI50,[3]; corrected for time zero,23.3 µM
same,EC50,[3]; curve inflection point,23.2 µM
same,IC50,[4]; [15],13.7 µM
same,GI50,[4]; corrected for time zero,8.64 µM
same,EC50,[4]; curve inflection point,13.7 µM
same,IC50,[5]; [15],49.7 µM
same,GI50,[5]; corrected for time zero,42.3 µM
same,EC50,[5]; curve inflection point,49.7 µM
same,IC50,[6]; [15],34.3 µM
same,GI50,[6]; corrected for time zero,28.2 µM
same,EC50,[6]; curve inflection point,34.3 µM
same,IC50,[7]; [15],12 µM
same,GI50,[7]; corrected for time zero,10.1 µM
same,EC50,[7]; curve inflection point,12 µM
same,IC50,[8]; [15],> 100 µM
same,GI50,[8]; corrected for time zero,> 100 µM
same,EC50,[8]; curve inflection point,48 µM
same,IC50,[9]; [15],81.2 µM
same,GI50,[9]; corrected for time zero,60.8 µM
same,EC50,[9]; curve inflection point,81.2 µM
same,IC50,[10]; [15],12.6 µM
same,GI50,[10]; corrected for time zero,7.44 µM
same,EC50,[10]; curve inflection point,12.6 µM
same,IC50,[11]; [15],75.6 µM
same,GI50,[11]; corrected for time zero,41.4 µM
same,EC50,[11]; curve inflection point,75.6 µM
same,IC50,[12]; [15],6.31 µM
same,GI50,[12]; corrected for time zero,5.53 µM
same,EC50,[12]; curve inflection point,5.52 µM
same,IC50,[13]; [15],> 100 µM
same,GI50,[13]; corrected for time zero,71.4 µM
same,EC50,[13]; curve inflection point,> 100 µM
same,IC50,[14]; [15],24.5 µM
same,GI50,[14]; corrected for time zero,15.5 µM
same,EC50,[14]; curve inflection point,24.5 µM
